Data from paper PMC3814616, “BRAF inhibitors suppress apoptosis through off-target inhibition of JNK signaling” (eLife, 2013).

Legend:
Test in all cases: Quantitative competitive binding assay (KINOMEscan)
OSR1 (OXSR1) = target: T1, OSR1 (OXSR1) (Homo sapiens, UniProt O95747); settings: for remaining binding at 0.05 µM: read-out: Percent control (50 nM); for remaining binding at 0.2 µM: read-out: Percent control (200 nM); for remaining binding at 1 µM: read-out: Percent control (1000 nM); for remaining binding at 10 µM: read-out: Percent control (10 μM)
T1 construct: purchased KINOMEscan (DiscoveRx), San Diego, CA

MEK6 (MAP2K6) = target: T2, MEK6 (MAP2K6) (Homo sapiens, UniProt P52564); settings: for remaining binding at 0.05 µM: read-out: Percent control (50 nM); for remaining binding at 0.2 µM: read-out: Percent control (200 nM); for remaining binding at 1 µM: read-out: Percent control (1000 nM); for remaining binding at 10 µM: read-out: Percent control (10 μM)
T2 construct: purchased KINOMEscan (DiscoveRx), San Diego, CA

MAP3K15 = target: T3, MAP3K15 (Homo sapiens, UniProt Q6ZN16); settings: for remaining binding at 0.05 µM: read-out: Percent control (50 nM); for remaining binding at 0.2 µM: read-out: Percent control (200 nM); for remaining binding at 1 µM: read-out: Percent control (1000 nM); for remaining binding at 10 µM: read-out: Percent control (10 μM)
T3 construct: purchased KINOMEscan (DiscoveRx), San Diego, CA
T3 sequence (Q6ZN16 1-1313): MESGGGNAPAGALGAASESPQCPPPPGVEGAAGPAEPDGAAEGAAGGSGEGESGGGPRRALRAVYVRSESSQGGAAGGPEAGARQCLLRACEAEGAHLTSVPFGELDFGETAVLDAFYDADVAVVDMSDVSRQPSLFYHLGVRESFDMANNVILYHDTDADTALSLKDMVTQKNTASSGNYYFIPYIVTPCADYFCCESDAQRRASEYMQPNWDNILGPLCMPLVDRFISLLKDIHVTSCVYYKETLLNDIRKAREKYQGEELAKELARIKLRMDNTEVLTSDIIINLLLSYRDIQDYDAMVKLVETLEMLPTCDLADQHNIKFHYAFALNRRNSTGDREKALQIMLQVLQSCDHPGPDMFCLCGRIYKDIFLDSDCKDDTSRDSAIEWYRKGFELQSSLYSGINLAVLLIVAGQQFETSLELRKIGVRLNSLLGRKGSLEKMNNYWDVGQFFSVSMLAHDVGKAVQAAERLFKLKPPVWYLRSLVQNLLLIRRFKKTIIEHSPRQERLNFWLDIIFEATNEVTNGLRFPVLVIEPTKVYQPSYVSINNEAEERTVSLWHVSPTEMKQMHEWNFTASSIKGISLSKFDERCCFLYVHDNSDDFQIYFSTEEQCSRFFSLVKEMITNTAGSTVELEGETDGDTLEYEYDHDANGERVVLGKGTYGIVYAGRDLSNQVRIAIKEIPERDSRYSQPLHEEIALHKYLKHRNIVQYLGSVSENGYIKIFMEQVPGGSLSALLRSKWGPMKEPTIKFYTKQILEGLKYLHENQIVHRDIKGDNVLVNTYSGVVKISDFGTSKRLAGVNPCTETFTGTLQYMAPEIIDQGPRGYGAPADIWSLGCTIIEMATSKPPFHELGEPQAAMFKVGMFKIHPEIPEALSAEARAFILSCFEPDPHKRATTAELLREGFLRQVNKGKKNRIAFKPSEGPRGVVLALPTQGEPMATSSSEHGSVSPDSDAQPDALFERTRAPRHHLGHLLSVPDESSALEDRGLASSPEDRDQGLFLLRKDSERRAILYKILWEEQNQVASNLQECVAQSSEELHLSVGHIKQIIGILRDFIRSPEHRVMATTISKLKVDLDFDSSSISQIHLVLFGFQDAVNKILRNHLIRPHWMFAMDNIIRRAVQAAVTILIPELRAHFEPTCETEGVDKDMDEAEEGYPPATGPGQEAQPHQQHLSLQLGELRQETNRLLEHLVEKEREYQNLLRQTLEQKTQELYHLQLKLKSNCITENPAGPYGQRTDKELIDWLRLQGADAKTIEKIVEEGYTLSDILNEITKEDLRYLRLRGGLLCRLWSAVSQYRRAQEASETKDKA

ASK1 (MAP3K5) = target: T4, ASK1 (MAP3K5) (Homo sapiens, UniProt Q99683); settings: for IC50: estimated Kd, averaged pointwise estimates, transformed Hill equation, read-out: Calculated estimate of IC50; for remaining binding at 0.05 µM: read-out: Percent control (50 nM); for remaining binding at 0.2 µM: read-out: Percent control (200 nM); for remaining binding at 1 µM: read-out: Percent control (1000 nM); for remaining binding at 10 µM: read-out: Percent control (10 μM)
T4 construct: purchased KINOMEscan (DiscoveRx), San Diego, CA
T4 sequence (Q99683 1-1374): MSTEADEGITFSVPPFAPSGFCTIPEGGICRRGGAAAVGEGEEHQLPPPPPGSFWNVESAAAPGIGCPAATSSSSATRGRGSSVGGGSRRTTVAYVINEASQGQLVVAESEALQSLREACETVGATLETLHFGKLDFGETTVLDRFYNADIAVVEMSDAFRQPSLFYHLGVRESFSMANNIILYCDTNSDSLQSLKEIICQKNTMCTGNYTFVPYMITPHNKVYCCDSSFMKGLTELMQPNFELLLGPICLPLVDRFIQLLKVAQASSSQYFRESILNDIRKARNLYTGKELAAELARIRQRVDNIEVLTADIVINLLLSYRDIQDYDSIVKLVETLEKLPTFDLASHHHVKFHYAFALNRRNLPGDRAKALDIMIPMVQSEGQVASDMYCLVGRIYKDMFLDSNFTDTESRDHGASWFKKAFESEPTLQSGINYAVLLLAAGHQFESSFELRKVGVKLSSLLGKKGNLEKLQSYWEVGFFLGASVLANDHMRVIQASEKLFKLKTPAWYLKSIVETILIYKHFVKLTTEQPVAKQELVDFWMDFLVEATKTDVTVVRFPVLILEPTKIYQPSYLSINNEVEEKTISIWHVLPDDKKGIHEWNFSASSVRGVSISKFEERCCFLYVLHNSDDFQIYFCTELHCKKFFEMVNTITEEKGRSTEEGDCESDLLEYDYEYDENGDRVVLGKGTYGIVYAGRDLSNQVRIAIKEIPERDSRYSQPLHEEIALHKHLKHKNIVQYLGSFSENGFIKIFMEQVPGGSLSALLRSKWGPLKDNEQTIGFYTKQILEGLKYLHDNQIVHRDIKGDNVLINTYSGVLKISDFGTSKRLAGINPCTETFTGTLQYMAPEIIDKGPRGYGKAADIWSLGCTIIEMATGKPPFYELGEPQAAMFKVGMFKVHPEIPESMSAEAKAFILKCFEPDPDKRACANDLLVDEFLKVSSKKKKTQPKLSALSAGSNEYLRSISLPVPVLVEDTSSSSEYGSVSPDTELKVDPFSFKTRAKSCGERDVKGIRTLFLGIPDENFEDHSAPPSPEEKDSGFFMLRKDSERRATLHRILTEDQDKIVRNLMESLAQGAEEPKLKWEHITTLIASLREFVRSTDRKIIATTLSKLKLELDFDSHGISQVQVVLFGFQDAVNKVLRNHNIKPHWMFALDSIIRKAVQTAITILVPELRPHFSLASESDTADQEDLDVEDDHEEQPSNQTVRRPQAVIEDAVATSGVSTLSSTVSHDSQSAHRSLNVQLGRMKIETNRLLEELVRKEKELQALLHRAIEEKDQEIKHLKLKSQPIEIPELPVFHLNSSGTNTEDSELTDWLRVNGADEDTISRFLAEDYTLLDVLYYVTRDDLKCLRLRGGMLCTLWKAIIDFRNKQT

T1 sequence (O95747 whole entry): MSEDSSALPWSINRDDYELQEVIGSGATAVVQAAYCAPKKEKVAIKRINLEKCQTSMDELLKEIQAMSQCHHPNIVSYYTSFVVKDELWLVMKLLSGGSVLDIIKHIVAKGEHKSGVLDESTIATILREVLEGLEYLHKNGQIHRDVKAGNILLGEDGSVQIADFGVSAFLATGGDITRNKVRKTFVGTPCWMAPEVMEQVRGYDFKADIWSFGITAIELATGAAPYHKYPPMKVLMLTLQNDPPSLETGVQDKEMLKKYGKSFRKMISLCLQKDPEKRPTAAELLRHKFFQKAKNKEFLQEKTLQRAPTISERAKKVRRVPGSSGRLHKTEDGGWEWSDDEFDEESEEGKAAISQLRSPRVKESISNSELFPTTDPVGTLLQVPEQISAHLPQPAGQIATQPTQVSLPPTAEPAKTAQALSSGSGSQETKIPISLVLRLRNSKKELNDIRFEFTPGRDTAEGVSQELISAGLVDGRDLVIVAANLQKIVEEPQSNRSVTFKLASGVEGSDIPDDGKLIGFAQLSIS
T2 sequence (P52564 whole entry): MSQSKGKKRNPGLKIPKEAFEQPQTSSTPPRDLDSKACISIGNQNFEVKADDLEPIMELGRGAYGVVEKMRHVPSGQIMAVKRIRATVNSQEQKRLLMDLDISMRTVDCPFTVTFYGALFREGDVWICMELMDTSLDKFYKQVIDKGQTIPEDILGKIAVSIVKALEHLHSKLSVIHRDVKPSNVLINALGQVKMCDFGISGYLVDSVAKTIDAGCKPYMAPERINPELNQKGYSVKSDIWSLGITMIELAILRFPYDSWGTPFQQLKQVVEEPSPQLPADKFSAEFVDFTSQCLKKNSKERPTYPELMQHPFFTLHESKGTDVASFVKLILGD

| SMILES | remaining binding at 0.05 µM (OSR1 (OXSR1)) | remaining binding at 0.2 µM (OSR1 (OXSR1)) | remaining binding at 1 µM (OSR1 (OXSR1)) | remaining binding at 10 µM (OSR1 (OXSR1)) | remaining binding at 0.05 µM (MEK6 (MAP2K6)) | remaining binding at 0.2 µM (MEK6 (MAP2K6)) | remaining binding at 1 µM (MEK6 (MAP2K6)) | remaining binding at 10 µM (MEK6 (MAP2K6)) | remaining binding at 0.05 µM (MAP3K15) | remaining binding at 0.2 µM (MAP3K15) | remaining binding at 1 µM (MAP3K15) | remaining binding at 10 µM (MAP3K15) | IC50 (ASK1 (MAP3K5)) | remaining binding at 0.05 µM (ASK1 (MAP3K5)) | remaining binding at 0.2 µM (ASK1 (MAP3K5)) | remaining binding at 1 µM (ASK1 (MAP3K5)) | remaining binding at 10 µM (ASK1 (MAP3K5)) | IC50 (MEK6 (MAP2K6); estimated Kd, averaged pointwise estimates, transformed Hill equation, read-out: Calculated estimate of IC50) |
| --- | --- | --- | --- | --- | --- | --- | --- | --- | --- | --- | --- | --- | --- | --- | --- | --- | --- | --- |
| CCCS(=O)(=O)Nc1ccc(F)c(C(=O)c2c[nH]c3ncc(Cl)cc23)c1F [PLX4720] | 100% | 94% | 95% | 42% | 82% | 100% | 100% | 47% | 94% | 97% | 91% | 59% | 14.2 µM | 89% | 98% | 97% | 100% |  |
| CCCS(=O)(=O)Nc1ccc(F)c(C(=O)c2c[nH]c3ncc(-c4ccc(Cl)cc4)cc23)c1F [vemurafenib] | 100% | 100% | 89% | 98% | 91% | 97% | 87% | 21% | 84% | 100% | 84% | 91% | 12 µM | 90% | 94% | 97% | 100% | 4.08 µM |
